Entries after “also recorded” stand apart in the source; their conditions may differ.
Key:
[1] = tested on: N. gonorrhoeae F62 ΔIgtD; format: cell-based
Protocol: FIG. 2. […] N. gonorrhoeae F62 ΔIgtD was grown in media alone (no CMP-sialic acid added), or media that contained 20 μg/ml (˜30 μM) of each of the indicated CMP-nonulosonates. Resistance of bacteria to complement-dependent killing in the presence of 3.3%, 6.7% or 10% normal human serum (NHS) was measured in serum bactericidal assays.
FIG. 5. […] N. gonorrhoeae F62 ΔIgtD was suspended in media containing 20 μg/ml (˜30 μM) CMP-Neu5Ac. Following 15 min of incubation at 37° C., CMP-Neu5Ac9Az or CMP-Leg5Ac7Ac (at concentrations of 20, 2 or 0.2 μg/ml final) were added and bacteria were incubated for 2 h. Serum bactericidal assays were then performed using 3.3% (solid black bars) or 10% (hatched bars) NHS. Controls included bacteria in media that lacked any CMP-nonulosonate, or bacteria that were incubated in CMP-Neu5Ac only. Y-axis, % survival.
We next determined the effects of incorporation of the CMP salts of five structural analogues of Neu5Ac (Neu5Gc, Neu5Ac9Ac, Neu5Ac9Az, Neu5Gc8Me and Leg5Ac7Ac) on the ability of N. gonorrhoeae F62 ΔIgtD to resist complement-dependent killing by normal human serum at concentrations of 10, 6.7 or 3.3%. Bacteria were grown either in media alone, or media supplemented with 30 μM (˜20 μg/ml) of each of the CMP-nonulosonates.
The ability of two of the CMP-nonulosonates, CMP-Neu5Ac9Az and CMP-Leg5Ac7Ac, to counter the ability of CMP-Neu5Ac to enhance serum resistance of N. gonorrrhoeae was then examined. The analogues were added at concentrations of 20, 2 or 0.2 μg/ml to growth media 15 min after the addition of CMP-Neu5Ac (20 μg/ml) to F62 ΔIgtD.
Serum bactericidal assays were performed as described previously (11). Bacteria harvested from an overnight culture on chocolate agar plates were grown in liquid media containing the specified concentration of CMP-nonulosonate as specified for each experiment. Approximately 2000 CFU of F62 ΔIgtD were incubated with NHS (concentration specified for each experiment). The final reaction volumes were maintained at 150 μl. […]

[2] = molecular target: T1, gonococcal LOS sialyltransferase (Lst) (Neisseria gonorrhoeae, UniProt P72074); format: cell-based, N. gonorrhoeae; conditions: CMP salt 30 μM (20 μg/ml), 2 h at 37° C.
T1 construct: served as substrates for gonococcal Lst in the context of live bacteria; endogenous in cells; host or cells: N. gonorrhoeae F62 ΔlgtD (live bacteria)
T1 sequence (P72074 whole entry): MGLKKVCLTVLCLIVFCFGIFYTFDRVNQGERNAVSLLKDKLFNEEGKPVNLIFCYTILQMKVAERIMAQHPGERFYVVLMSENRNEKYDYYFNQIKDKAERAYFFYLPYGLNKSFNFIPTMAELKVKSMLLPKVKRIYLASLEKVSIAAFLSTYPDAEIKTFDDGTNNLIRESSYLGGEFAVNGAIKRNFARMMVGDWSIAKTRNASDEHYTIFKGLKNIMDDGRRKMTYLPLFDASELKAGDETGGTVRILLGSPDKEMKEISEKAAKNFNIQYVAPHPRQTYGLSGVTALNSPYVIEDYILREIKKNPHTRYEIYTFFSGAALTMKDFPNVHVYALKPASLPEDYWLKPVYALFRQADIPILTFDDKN
Protocol: FIG. 1. Substrate specificity of gonococcal LOS sialyltransferase (Lst) N. gonorrhoeae strain F62 ΔIgtD was grown in standard gonococcal liquid media alone (‘No sialic acid’) or in media supplemented with CMP salts of the indicated sialic acid or nonulosonic acid, each at a concentration of 20 μg/ml (˜30 μM), for 2 h at 37° C. Bacteria were washed, pellets treated with protease K, lysed in 4×LDS buffer and lysates were separated on 12% Bis-Tris gels using MES running buffer. LOS was transferred to a PVDF membrane and probed with mAb 3F11 that recognizes the lacto-N-neotetraose only in the non-sialylated state; the addition of a sialic acid or nonulosonate residue abrogates mAb 3F11 binding (upper panel). LOS was also visualized by silver staining (middle panel). Sialylation or nonulosonate (NulO) modification was also quantified using whole cell ELISA with mAb 3F11 (lower graph).
To define the substrate specificity of gonococcal LOS sialyltransferase, N. gonorrhoeae F62 ΔIgtD was grown in media alone, or media that contained the CMP-activated derivatives of 7 nonulosonates (listed in Table 1), each at a concentration of 30 μM (20 μg/ml). Following incubation for 2 h at 37° C., bacteria were washed, lysed with protease K/LDS sample buffer and separated on 12% Bis-tris gels. Blots were probed with mAb 3F11, which binds to the terminal lactosamine residue of lacto-N-neotetraose (LNT); any extension beyond the terminal Gal (in this instance with a nonose) would abrogate 3F11 binding. […] Whole cell ELISA with mAb 3F11 confirmed results of western blotting (FIG. 1, lower graph).
Bacteria (F62 ΔIgtD) grown overnight on chocolate agar plates were suspended in gonococcal liquid media supplemented with IsoVitaleX (11) that contained specified concentrations of the CMP-nonulosonate. Bacteria were then incubated at 37° C. for the period specified in each experiment.
Gonococcal lysates treated with protease K (100 μg/ml) and NuPAGE® LDS Sample Buffer (4×) (Invitrogen) were separated on NuPAGE® 12% Bis-Tris (Invitrogen) gels using Novex® MES running buffer (Invitrogen) followed by sliver staining with the Bio-Rad Silver Stain Kit, or were transferred to an Immobilon PVDF membrane (Millipore). Membranes were blocked with PBS/1% milk and probed with tissue culture supernatants that contained mAb 3F11. mAb 3F11-reactive LOS bands were disclosed with anti-mouse IgM conjugated to alkaline phosphatase followed by the addition of BCIP®/NBT-Purple Liquid Substrate (Sigma).

[3] = tested on: N. gonorrhoeae F62 ΔIgtD; test: Flow cytometry for factor H binding to bacteria; format: cell-based
Protocol: FIG. 3. Effects of LOS modification with various nonulosonate analogues on fH binding to N. gonorrhoeae. N. gonorrhoeae F62 ΔIgtD was grown in media alone, or media supplemented with 20 μg/ml (˜30 μM) of each of the indicated CMP-nonulosonates. Binding of bacteria to fH (10 μg/ml) was measured by flow cytometry using polyclonal goat anti-human fH. The control indicates reaction mixtures that lacked fH. Y-axis, median fluorescence of fH binding. The mean (SD) of 2 independent repeats is shown.
FIG. 7. […] A. N. gonorrhoeae F62 ΔIgtD was incubated in media containing CMP-Neu5Ac (20 μg/ml), followed […] by the addition of either CMP-Neu5Ac9Az or CMP-Leg5Ac7Ac (20, 2 or 0.2 μg/ml). Bacteria were grown for 2 h and fH binding detected by FACS using polyclonal goat anti-human fH. The Y-axis represents median fluorescence. The mean (SEM) of two independent observations is shown. B. Development of serum resistance lags behind fH binding when measured as a function of time of exposure of bacteria to CMP-Neu5Ac. CMP-Neu5Ac (20 μg/ml) was added to media containing F62 ΔIgtD and bacteria were taken at the time points indicated on the X-axis and assayed for fH binding by FACS with anti-fH mAb 90× (left Y-axis; median fluorescence (SEM)), or tested for its ability to resist killing by 10% NHS (right Y-axis; percent survival). The data represent 2-3 independent experiments. C. Representative histograms of a fH binding FACS experiment.
The addition of a terminal Neu5Ac residue to LNT-expressing LOS enhances binding of the alternative pathway inhibitor, factor H, which contributes to the ability of sialylated gonococci to resist killing by complement (7). fH binding to N. gonorrhoeae F62 ΔIgtD grown in the presence of each of the CMP-nonulosonates (20 μg/ml or 30 μM) was examined (FIG. 3). […] Reducing the CMP-nonulosonate concentrations in growth media to 2 μg/ml (3 μM) yielded similar fH binding results (FIG. 9B). Further, modification of LOS with Neu5Ac or Neu5Gc yielded similar amounts of fH binding over CMP-sialic acid concentrations ranging from 0.5 to 4 μg/ml, with near maximal fH binding observed even at the lowest concentration tested (FIG. 9C).
fH binding to bacteria was performed using flow cytometry as described previously (14). Briefly, bacteria (F62 ΔIgtD) were harvested from chocolate agar plates and grown in liquid media that contained the specified concentration of the CMP-nonulosonate as described above. Bacteria were then washed with Hanks Balanced Salt Solution (HBSS) containing 1 mM Ca^2+ and 1 mM Mg^2+ (HBSS^++) and incubated with fH purified from human plasma (Complement Technology, Inc.; concentration specified for each experiment). Bound fH was detected using either anti-fH mAb (Quidel, catalog no. A254 (mAb 90×)) or goat anti-human fH, followed by FITC conjugated anti-mouse IgG or anti-goat IgG, respectively (Sigma); both Abs had similar performance characteristics. All reaction mixtures were carried out in HBSS^++/1% BSA in a final volume of 50 μl. Flow cytometry was performed using a FACSCalibur instrument (Becton Dickinson) and data were analyzed using FlowJo (version 7.2.5; Tree Star, Inc.).

Compound	resistance to 10% serum ([1]; CMP-nonulosonate 3 μM (~2 μg/ml), 10% serum)	Serum resistance ([1]; summary Table 1)	mAb 3F11 binding / incorporation of nonulosonate onto LNT LOS (use as Lst substrate) [2]	fH binding ([3]; CMP-nonulosonate 20 μg/ml or 30 μM, vs unsialylated F62 ΔIgtD)	fH binding ([3]; CMP-sialic acid 0.5 to 4 μg/ml, lowest concentration tested)	fH binding ([3]; summary Table 1)	bacterial survival / serum resistance ([1]; all serum concentrations tested (10, 6.7, 3.3%), 30 μM)
Nc1ccn([C@@H]2O[C@H](COP(=O)(O)O[C@@]3(C(=O)O)C[C@H](O)[C@@H](NC(=O)CO)[C@H]([C@H](O)[C@H](O)CO)O3)[C@@H](O)[C@H]2O)c(=O)n1 [CMP-Neu5Gc, CMP-5-hydroxyacetamido-3,5-dideoxy-D-glycero-D-galacto-nonulosonic acid, reference compound]	conferred resistance	high (>100% survival in 10% serum)	decreased binding of mAb 3F11	Maximal	near maximal	high	
CC(=O)N[C@H]([C@@H]1O[C@](OP(=O)(O)OC[C@H]2O[C@@H](n3ccc(N)nc3=O)[C@H](O)[C@@H]2O)(C(=O)O)C[C@H](O)[C@@H]1NC(C)=O)[C@H](C)O [CMP-Pse5Ac7Ac, reference compound]			not incorporated; also recorded: not utilized				did not affect serum resistance

— patent US10865222B2, “Neisseria gonorrhoeae therapeutic based on CMP-nonulosonate sugars” (priority 2014, dated 2020)
